According to PMC7930822, “Phase I Trial to Evaluate the Tolerance, Pharmacokinetics and Efficacy of the Broad-Spectrum ErbB Family Inhibitor Larotinib Mesylate in Patients With Advanced Solid Tumors” (Frontiers in Pharmacology, 2021):
Structures can show the parent of a compound that is named as a salt. Where two headings read alike, the source gives them in different places.

Assay: phase I plasma pharmacokinetics (non-compartmental, LC-MS/MS)
Type: in vivo, human
Settings: plasma, plasma; for Tmax / Vd/F / AUC(0-t) / AUC(0-inf) / Cmax / half-life / AUC: human; for Tmax / Vd/F / AUC(0-t) / AUC(0-inf) / Cmax / half-life: po; for AUC: read-out: AUCτ,ss, mean (min–max)
Description: This was a phase I, single-center, open-label, dose-escalation study conducted at First Hospital of Jilin University, China (registration no.: ChiCTR-OPC-15007153 registered at http://www.chictr.org.cn). Larotinib mesylate hard capsules were produced and supplied by Sunshine Lake Pharma Co., Ltd (Guangdong Province, China) in different unit doses of […] under GMP condition. Seven dose levels were designed in the study: 50, 100, 150, 220, 300, 350, and 400 mg with administration stages labeled cycle 0, cycle 1, and subsequent treatment cycles. Patients received an oral single dose of larotinib mesylate after fasting during a 6-days cycle 0 to evaluate the tolerance and pharmacokinetic characteristics. After cycle 0, larotinib mesylate was continuously administered once daily for 28 days in cycle 1, and the tolerance and pharmacokinetic characteristics of multiple doses were evaluated (Figure 2). The patients who […] disease control (complete response [CR], partial response [PR], or stable disease [SD]) at the end of cycle one were permitted to participate in the subsequent 28-days treatment cycles until progressive disease (PD) or intolerance was observed.
Blood samples (4 ml) for pharmacokinetic analyses were collected in tubes containing K2EDTA anticoagulant. Blood samples were centrifuged at 3,000 rpm for 10 min at 4°C and stored at –80°C until liquid chromatography-mass spectrophotometry (LC-MS/MS) analysis. Urine and fecal samples were collected only when patients were given the150-mg and 220-mg dose levels at sampling time intervals of 0–4, 4–8, 8–12, 12–24, 24–48, 48–72, 72–96 and 96–120 h in cycle 0.
Linear mixed effects model was used to explore the dose exposure relationships. Dose proportionality was concluded if the 95% confidence interval (CI) of the linear regression slope was completely contained within the decision interval (1 + ln (0.8)/ln (8)∼1 + ln (1.25)/ln (8)). For urine and fecal data, the accumulative excretion rates of larotinib and M5 were calculated.
Bioanalysis was performed at Frontage Company (Shanghai, China). Validated high-performance LC-MS/MS method was used to quantify the concentrations of larotinib and M5 in plasma, urine and feces samples. Protein precipitation was employed for plasma, urine and feces processing. Plasma larotinib and M5 concentrations were determined using appropriate calibration curves obtained from standards in the range of 0.5–1,000 ng/ml. The interassay precision of the analysis method were 4.2–5.4% for larotinib and 3.9–4.3% for M5. The interassay accuracy of the analysis method were 100.4–103.4% for larotinib and 102.2–102.9% for M5, respectively.
Statistical analyses were performed using SAS software, version 9.2 (SAS Institute Inc., United States). Descriptive statistics were used to summarize continuous variables as cases, means with standard deviations (SDs), medians, quartiles, maximums and minimums. For categorical variables, frequencies and percentages were used. A linear mixed effects model, relating log-transformed Cmax and AUC parameters to log-transformed dose, was used to investigate dose proportionality.

[1] = multiple oral administration, 50 mg larotinib mesylate, steady state
[2] = multiple oral administration, 100 mg larotinib mesylate, steady state
[3] = multiple oral administration, 150 mg larotinib mesylate, steady state
[4] = multiple oral administration, 220 mg larotinib mesylate, steady state
[5] = multiple oral administration, 300 mg larotinib mesylate, steady state
[6] = multiple oral administration, 350 mg larotinib mesylate, steady state
[7] = multiple oral administration, 400 mg larotinib mesylate, steady state

## COc1cc2ncnc(Nc3ccc(F)c(Cl)c3)c2cc1OCCCN1C[C@@H]2OCCO[C@@H]2C1 [larotinib mesylate]
300 mg, multiple oral administration, 300 mg larotinib mesylate, steady state, read-out: Tmax,ss, median (min–max)
  Tmax: 5 h
300 mg, multiple oral administration, 300 mg larotinib mesylate, steady state, read-out: Vz/F,ss, mean (min–max)
  Vd/F: 1060 L
300 mg, single oral administration, 300 mg larotinib mesylate, read-out: AUC0-24, mean (min–max)
  AUC(0-t): 2690 ng·h/mL
300 mg, single oral administration, 300 mg larotinib mesylate, read-out: AUC0-t, mean (min–max)
  AUC(0-t): 4880 ng·h/mL
300 mg, single oral administration, 300 mg larotinib mesylate, read-out: AUC0-∞, mean (min–max)
  AUC(0-inf): 5550 ng·h/mL
300 mg, single oral administration, 300 mg larotinib mesylate, read-out: Cmax, mean (min–max)
  Cmax: 267 ng/mL
300 mg, single oral administration, 300 mg larotinib mesylate, read-out: T1/2, mean (min–max) (converted)
  half-life: 46.2 h
300 mg, single oral administration, 300 mg larotinib mesylate, read-out: Tmax, median (min–max)
  Tmax: 5 h
300 mg, single oral administration, 300 mg larotinib mesylate, read-out: Vz/F, mean (min–max)
  Vd/F: 4340 L
350 mg, multiple oral administration, 350 mg larotinib mesylate, steady state, read-out: AUC0-t,ss, mean (min–max)
  AUC(0-t): 35900 ng·h/mL
350 mg, multiple oral administration, 350 mg larotinib mesylate, steady state, read-out: AUC0-∞,ss, mean (min–max)
  AUC(0-inf): 47300 ng·h/mL
350 mg, multiple oral administration, 350 mg larotinib mesylate, steady state, read-out: Cmax,ss, mean (min–max)
  Cmax: 695 ng/mL
350 mg, multiple oral administration, 350 mg larotinib mesylate, steady state, read-out: T1/2,ss, mean (min–max) (converted)
  half-life: 58.6 h
350 mg, multiple oral administration, 350 mg larotinib mesylate, steady state, read-out: Tmax,ss, median (min–max)
  Tmax: 5 h
350 mg, multiple oral administration, 350 mg larotinib mesylate, steady state, read-out: Vz/F,ss, mean (min–max)
  Vd/F: 641 L
350 mg, single oral administration, 350 mg larotinib mesylate, read-out: AUC0-24, mean (min–max)
  AUC(0-t): 3240 ng·h/mL
350 mg, single oral administration, 350 mg larotinib mesylate, read-out: AUC0-t, mean (min–max)
  AUC(0-t): 6120 ng·h/mL
350 mg, single oral administration, 350 mg larotinib mesylate, read-out: AUC0-∞, mean (min–max)
  AUC(0-inf): 6830 ng·h/mL
350 mg, single oral administration, 350 mg larotinib mesylate, read-out: Cmax, mean (min–max)
  Cmax: 300 ng/mL
350 mg, single oral administration, 350 mg larotinib mesylate, read-out: T1/2, mean (min–max) (converted)
  half-life: 44.6 h
350 mg, single oral administration, 350 mg larotinib mesylate, read-out: Tmax, median (min–max)
  Tmax: 3.5 h
350 mg, single oral administration, 350 mg larotinib mesylate, read-out: Vz/F, mean (min–max)
  Vd/F: 3800 L
400 mg, multiple oral administration, 400 mg larotinib mesylate, steady state, read-out: AUC0-t,ss, mean (min–max)
  AUC(0-t): 45000 ng·h/mL
400 mg, multiple oral administration, 400 mg larotinib mesylate, steady state, read-out: AUC0-∞,ss, mean (min–max)
  AUC(0-inf): 70400 ng·h/mL
400 mg, multiple oral administration, 400 mg larotinib mesylate, steady state, read-out: Cmax,ss, mean (min–max)
  Cmax: 845 ng/mL
400 mg, multiple oral administration, 400 mg larotinib mesylate, steady state, read-out: T1/2,ss, mean (min–max) (converted)
  half-life: 87 h
400 mg, multiple oral administration, 400 mg larotinib mesylate, steady state, read-out: Tmax,ss, median (min–max)
  Tmax: 6 h
400 mg, multiple oral administration, 400 mg larotinib mesylate, steady state, read-out: Vz/F,ss, mean (min–max)
  Vd/F: 754 L
400 mg, single oral administration, 400 mg larotinib mesylate, read-out: AUC0-24, mean (min–max)
  AUC(0-t): 3970 ng·h/mL
400 mg, single oral administration, 400 mg larotinib mesylate, read-out: AUC0-t, mean (min–max)
  AUC(0-t): 7440 ng·h/mL
400 mg, single oral administration, 400 mg larotinib mesylate, read-out: AUC0-∞, mean (min–max)
  AUC(0-inf): 9090 ng·h/mL
400 mg, single oral administration, 400 mg larotinib mesylate, read-out: Cmax, mean (min–max)
  Cmax: 354 ng/mL
400 mg, single oral administration, 400 mg larotinib mesylate, read-out: T1/2, mean (min–max) (converted)
  half-life: 68.6 h
400 mg, single oral administration, 400 mg larotinib mesylate, read-out: Tmax, median (min–max)
  Tmax: 5 h
400 mg, single oral administration, 400 mg larotinib mesylate, read-out: Vz/F, mean (min–max)
  Vd/F: 7410 L
Single oral dose, across 50–400 mg, read-out: mean t1/2
  half-life: 39.3 to 68.6 h
Single oral dose, across 50–400 mg, read-out: median Tmax
  Tmax: 3.5 to 6 h
[1]
  AUC: 1220 ng·h/mL
  CL/F,ss, mean (min–max): 10.73 (7.513–12.58) L/h
[2]
  AUC: 1970 ng·h/mL
  CL/F,ss, mean (min–max): 21.17 (13.80–29.53) L/h
[3]
  AUC: 6500 ng·h/mL
  CL/F,ss, mean (min–max): 6.512 (4.414–7.565) L/h
[4]
  AUC: 10300 ng·h/mL
  CL/F,ss, mean (min–max): 5.126 (4.592–6.098) L/h
[5]
  AUC: 7260 ng·h/mL
  CL/F,ss, mean (min–max): 13.91 (10.58–18.36) L/h
[6]
  AUC: 13200 ng·h/mL
  CL/F,ss, mean (min–max): 7.648 (5.819–8.842) L/h
[7]
  AUC: 16100 ng·h/mL
  CL/F,ss, mean (min–max): 6.087 (4.160–7.894) L/h
Single oral administration, 50 mg larotinib mesylate
  CL/F, mean (min–max): 62.01 (54.17–71.3) L/h
Single oral administration, 100 mg larotinib mesylate
  CL/F, mean (min–max): 73.81 (62.61–90.83) L/h
Single oral administration, 150 mg larotinib mesylate
  CL/F, mean (min–max): 29.11 (18.30–38.09) L/h
Single oral administration, 220 mg larotinib mesylate
  CL/F, mean (min–max): 27.79 (24.27–33.83) L/h
Single oral administration, 300 mg larotinib mesylate
  CL/F, mean (min–max): 63.76 (30.15–116.4) L/h
Single oral administration, 350 mg larotinib mesylate
  CL/F, mean (min–max): 55.78 (36.19–73.27) L/h
Single oral administration, 400 mg larotinib mesylate
  CL/F, mean (min–max): 70.47 (29.90–145.6) L/h
